Patent US9358191B2, “Deodorant composition” (priority 2002, dated 2016)

Test: Deodorizing effect on malodor gas, closed circulation system
Conditions: 1 mL on absorbent cotton, 2 hours of working
Protocol: Into a 4 L odorless bag, 4 L of air was included by means of an air pump. Each malodor gas (ammonia, trimethylamine, hydrogen sulfide, or methyl mercaptan) was injected thereinto by an injection syringe to regulate a gas concentration. The bag was set at a test apparatus of closed circulation system fitted with an air pump and the air pump was worked at an air amount of about 1000 mL/minute. One milliliter of the above deodorant composition was supported on an absorbent cotton (0.2 g) and the cotton was set at the discharging side of the air pump. After 2 hours of working, the remaining amount of the malodor gas in the system was measured using a dedicated gas detecting tube (Gastech Corporation) and a deodorization rate was calculated according to the following expression.
As a comparative example, an absorbent cotton impregnated with 1 mL of a 20 mM aqueous solution of gallic acid was set at the discharging side of the air pump, instead of the absorbent cotton on which the above deodorant composition was supported. Then, the test was conducted similarly and the deodorization rate was calculated.
Deodorization rate (%)=100×{1−(A/B)}
In the above expression, A means the measured concentration of the malodor components and B means the concentration of the malodor components measured in the control. The control is the case that an absorbent cotton was impregnated with 1 mL of water instead of 1 mL of the above deodorant composition.

Compound `O=C(O)c1cc(O)c(O)c(O)c1` [Gallic acid aqueous solution, gallic acid] has a Deodorization rate (Ammonia, initial concentration 60 ppm) of 85.0%, a Deodorization rate (Hydrogen sulfide, initial concentration 120 ppm) of 5.0% and a Deodorization rate (Methyl mercaptan, initial concentration 100 ppm) of 0%. For the same compound, the Deodorization rate (Trimethylamine, initial concentration 130 ppm) was 70.0%.
